Test results as given in patent US20250215030A1, “STAT MODULATORS AND USES THEREOF” (Recludix Pharma, Inc., priority 2022, published 2025).
pIC50: −log10 of the molar value.

Experiments:
pSTAT3 (pY705-STAT3) = molecular target: T1, pSTAT3 (pY705-STAT3) (Homo sapiens, UniProt P40763); assay: MSD-pSTAT-PBMC Assay (pSTAT3, IL-6 stimulated); assay type: cell-based; conditions: PBMC, compound 3 hrs, then 10 ng/mL IL-6 for 10 min; MSD pY705-STAT3; read-out: pSTAT3
T1 construct: host or cells: cryopreserved PBMC
Summary of the method: (§1)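 Human PBMCs (50,000 cells/well for STAT3, 25,000 for STAT6) treated with compound 3 h, then stimulated 10 min with 10 ng/mL IL-6 or 1 ng/mL IL-4. Lysate pSTAT3 (pY705) or pSTAT6 (pY641) measured by MSD sandwich electrochemiluminescence. Signal minus unstimulated, normalized to DMSO; IC50 by variable-slope nonlinear regression.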

pSTAT6 (pY641-STAT6) = molecular target: T2, pSTAT6 (pY641-STAT6) (Homo sapiens, UniProt P42226); assay: MSD-pSTAT-PBMC Assay (pSTAT6, IL-4 stimulated); assay type: cell-based; conditions: compound 3 hrs, then 1 ng/mL IL-4 for 10 min
T2 construct: host or cells: cryopreserved PBMC
T2 sequence (P42226 1-847): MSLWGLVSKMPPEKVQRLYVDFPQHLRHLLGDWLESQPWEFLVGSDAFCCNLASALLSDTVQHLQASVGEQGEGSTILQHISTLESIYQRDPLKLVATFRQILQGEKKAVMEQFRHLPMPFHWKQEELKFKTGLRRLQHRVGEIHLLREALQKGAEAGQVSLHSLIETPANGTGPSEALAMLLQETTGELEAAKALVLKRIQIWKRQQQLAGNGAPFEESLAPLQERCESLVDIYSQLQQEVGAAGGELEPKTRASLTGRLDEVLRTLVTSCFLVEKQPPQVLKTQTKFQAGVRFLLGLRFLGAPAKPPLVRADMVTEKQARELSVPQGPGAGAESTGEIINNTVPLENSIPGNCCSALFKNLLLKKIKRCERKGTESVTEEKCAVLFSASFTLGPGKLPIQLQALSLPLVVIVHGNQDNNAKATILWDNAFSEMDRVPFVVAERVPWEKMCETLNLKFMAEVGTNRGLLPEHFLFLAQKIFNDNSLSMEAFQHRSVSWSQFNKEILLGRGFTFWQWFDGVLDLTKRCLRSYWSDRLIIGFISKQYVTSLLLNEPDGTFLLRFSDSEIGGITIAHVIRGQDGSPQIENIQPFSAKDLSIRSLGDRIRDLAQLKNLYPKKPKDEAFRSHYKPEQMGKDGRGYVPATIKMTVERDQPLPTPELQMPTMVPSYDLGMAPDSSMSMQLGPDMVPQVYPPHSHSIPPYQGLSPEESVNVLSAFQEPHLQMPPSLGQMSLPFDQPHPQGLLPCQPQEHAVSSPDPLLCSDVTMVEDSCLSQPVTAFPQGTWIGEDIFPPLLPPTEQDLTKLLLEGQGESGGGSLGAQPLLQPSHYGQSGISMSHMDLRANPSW
Summary of the method: as §1

T1 sequence (P40763 whole entry): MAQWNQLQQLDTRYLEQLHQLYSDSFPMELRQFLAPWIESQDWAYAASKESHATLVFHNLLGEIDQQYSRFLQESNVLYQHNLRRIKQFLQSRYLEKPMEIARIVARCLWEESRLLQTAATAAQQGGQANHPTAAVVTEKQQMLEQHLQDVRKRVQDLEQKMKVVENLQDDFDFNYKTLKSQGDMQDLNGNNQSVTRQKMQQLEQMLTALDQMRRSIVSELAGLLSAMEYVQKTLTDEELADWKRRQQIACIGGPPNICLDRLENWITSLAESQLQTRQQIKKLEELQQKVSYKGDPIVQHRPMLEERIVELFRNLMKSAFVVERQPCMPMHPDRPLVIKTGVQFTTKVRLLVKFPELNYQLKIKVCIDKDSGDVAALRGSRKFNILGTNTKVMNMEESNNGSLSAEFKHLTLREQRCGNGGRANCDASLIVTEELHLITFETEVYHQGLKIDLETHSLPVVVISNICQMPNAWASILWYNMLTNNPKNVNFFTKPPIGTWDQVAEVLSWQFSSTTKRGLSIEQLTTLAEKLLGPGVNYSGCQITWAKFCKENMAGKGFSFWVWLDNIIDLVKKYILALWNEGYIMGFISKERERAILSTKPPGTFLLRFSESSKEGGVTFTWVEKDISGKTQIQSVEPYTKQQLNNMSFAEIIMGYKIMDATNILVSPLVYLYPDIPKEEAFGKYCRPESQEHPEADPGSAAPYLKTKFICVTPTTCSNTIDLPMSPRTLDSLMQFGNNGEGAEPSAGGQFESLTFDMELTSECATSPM

| SMILES | pIC50 (pSTAT3 (pY705-STAT3)) | pIC50 (pSTAT6 (pY641-STAT6)) |
| --- | --- | --- |
| CC(C)(C)C(=O)OCOP(=O)(OCOC(=O)C(C)(C)C)C(F)(F)c1ccc2sc(C(=O)N[C@H]3C[C@@H]4C[C@@H]4C[C@H]4CC[C@@H](C(=O)N5CC(c6ccccn6)C5)N4C3=O)cc2c1 [Compound 206, (((difluoro(2-(((3S,6S,7aS, 8aR,9aR)-5-oxo-3-(3-(pyridin-2-yl)azetidine-1-carbonyl)decahydro-1H-cyclopropa[d]pyrrolo[1,2-a]azocin-6-yl)carbamoyl)benzo[b]thiophen-5-yl)methyl)phosphoryl)bis(oxy)) bis(methylene) bis(2,2-dimethyl-propanoate)] | > 7.00 | 6.00 to 7.00 |
| CC(C)(C)C(=O)OCOP(=O)(OCOC(=O)C(C)(C)C)C(F)(F)c1ccc2sc(C(=O)N[C@H]3C[C@@H]4C[C@@H]4C[C@H]4CC[C@@H](C(=O)N5CC(n6ccnc6)C5)N4C3=O)cc2c1 [Compound 207] | > 7.00 | < 5.52 |
| CC(C)(C)C(=O)OCOP(=O)(OCOC(=O)C(C)(C)C)C(F)(F)c1ccc2sc(C(=O)N[C@H]3C[C@H]4C[C@H]4C[C@H]4CC[C@@H](C(=O)N5CC(c6ccccn6)C5)N4C3=O)cc2c1 [Compound 209, (((difluoro(2-(((3S,6S,7aR, 8aS,9aR)-5-oxo-3-(3-(pyridin-2-yl)azetidine-1-carbonyl)decahydro-1H-cyclopropa[d]pyrrolo[1,2-a]azocin-6-yl)carbamoyl)benzo[b]thiophen-5-yl)methyl)phosphoryl)bis(oxy)) bis(methylene) bis(2,2-dimethyl-propanoate)] | > 7.00 | 6.00 to 7.00 |

More lines, now with the values ahead:

| pIC50 (pSTAT3 (pY705-STAT3)) | pIC50 (pSTAT6 (pY641-STAT6)) | SMILES |
| --- | --- | --- |
| > 7.00 | 5.52 to 6.00 | CC(=O)N1C[C@H](NC(=O)[C@@H]2CC[C@@H]3C[C@H]4C[C@H]4C[C@H](NC(=O)c4cc5cc(C(F)(F)P(=O)(OCOC(=O)C(C)(C)C)OCOC(=O)C(C)(C)C)ccc5s4)C(=O)N32)[C@@H](O)C1 [Compound 208, ((((2-(((3S,6S,7aS, 8aR,9aR)-3-(((3S,4S)-1-acetyl-4-hydroxy-pyrrolidin-3-yl)carbamoyl) 5-oxodecahydro-1H-cyclopropa[d]pyrrolo[1,2-a]azocin-6-yl)carbamoyl)benzo[b]thiophen-5-yl)difluoromethyl)phosphoryl)bis(oxy)) bis(methylene) bis(2,2-dimethyl-propanoate)] |
| > 7.00 | 6.00 to 7.00 | CC(C)(C)C(=O)OCOP(=O)(OCOC(=O)C(C)(C)C)C(F)(F)c1ccc2sc(C(=O)N[C@H]3C[C@@H]4C[C@@H]4C[C@H]4CC[C@@H](C(=O)N5CC6(CN(C(=O)Cc7ccccc7)C6)C5)N4C3=O)cc2c1 [Compound 210, (((difluoro(2-(((3S,6S,7aS, 8aR,9aR)-5-oxo-3-(6-(2-phenyl-acetyl)-2,6-diazaspiro[3.3]heptane-2-carbonyl)decahydro-1H-cyclopropa[d]pyrrolo[1,2-a]azocin-6-yl)carbamoyl)benzo[b]thiophen-5-yl)methyl)phosphoryl)bis(oxy)) bis(methylene) bis(2,2-dimethyl-propanoate)] |
| 6.00 to 7.00 | < 5.52 | CC(C)(C)C(=O)OCOP(=O)(OCOC(=O)C(C)(C)C)C(F)(F)c1ccc2sc(C(=O)N[C@H]3C[C@@H]4C[C@@H]4C[C@H]4CC[C@@H](C(=O)N5CCN(C(=O)c6cn[nH]c6)CC5)N4C3=O)cc2c1 [Compound 211, ((((2-(((3S,6S,7aS, 8aR,9aR)-3-(4-(1H-pyrazole-4-carbonyl)piperazine-1-carbonyl)-5-oxodecahydro-1H-cyclopropa[d]pyrrolo[1,2-a]azocin-6-yl)carbamoyl)benzo[b]thiophen-5-yl)difluoromethyl)phosphoryl)bis(oxy)) bis(methylene) bis(2,2-dimethyl-propanoate)] |
